Data from EPA's ToxRefDB 2.

Legend:
rat [1] = conditions: Carcinogenicity, fischer, Oral, Water, dose end: 104 week, group: systemic
mouse [2] = conditions: Carcinogenicity; other; Injection; Intraperitoneal; dose end: 50 week; group: systemic; systemic / pathology microscopic / lung / adenoma + systemic / pathology microscopic / lymph node / leukemia granulocytic + systemic / …
mouse [3] = conditions: Subchronic oral toxicity in rodents, b6c3f1, Feed, dose end: 13 week, group: systemic
mouse [4] = conditions: Multigenerational reproductive toxicity study, cd1, Oral, Feed, dose end: 2 generation
mouse [5] = conditions: Carcinogenicity, b6c3f1, Oral, Feed, dose end: 103 week, group: systemic
rat [6] = conditions: Carcinogenicity, fischer, Oral, Feed, dose end: 103 week, group: systemic
rat [7] = conditions: Sub-acute repeat dose toxicity, fischer, Oral, Feed, dose end: 14 day, group: systemic
rat [8] = conditions: Subchronic oral toxicity in rodents, fischer, Feed, dose end: 13 week, group: systemic
[9] = systemic / in life observation / body weight / body weight gain + systemic / in life observation / water consumption / water consumption + …
[10] = systemic / in life observation / water consumption / water consumption
[11] = systemic / in life observation / body weight / body weight + systemic / pathology microscopic / liver / mineralization + systemic / …
[12] = group: offspring, systemic / in life observation / body weight / offspring (pup) weight
[13] = group: parental, systemic / in life observation / body weight / body weight + systemic / organ weight / brain / relative to body weight + systemic / organ …
[14] = group: reproductive, reproductive / offspring survival early / birth index / birth index + reproductive / offspring survival early / live fetuses / live fetuses
[15] = systemic / in life observation / body weight / body weight + systemic / pathology microscopic / thyroid gland / hyperplasia
[16] = systemic / pathology microscopic / kidney / nephropathy
[17] = systemic / pathology microscopic / kidney / nephropathy + systemic / pathology microscopic / kidney / hyperplasia + systemic / pathology …
[18] = systemic / in life observation / food consumption / food consumption
[19] = systemic / in life observation / food consumption / food consumption + systemic / in life observation / body weight / body weight
[20] = systemic / organ weight / kidney / relative to body weight + systemic / organ weight / liver / relative to body weight

Structure (SMILES): O=c1[nH]cc(F)c(=O)[nH]1 [5-Fluorouracil]
- LOAEL (rat [1]; [9]): > 7.42 mg/kg/day
- NOAEL (rat [1]; [9]): ≥ 7.42 mg/kg/day
- LEL (rat [1]; [10]): 3.85 mg/kg/day
- NEL (rat [1]; [10]): < 3.85 mg/kg/day
- LEL (mouse [2]): 30 mg/kg/day
- LOAEL (mouse [2]): > 30 mg/kg/day
- NEL (mouse [2]): < 30 mg/kg/day
- NOAEL (mouse [2]): ≥ 30 mg/kg/day

Structure (SMILES): CC(=O)Nc1ccc(O)cc1 [Acetaminophen]
- LOAEL (mouse [3]; [11]): 1880 mg/kg/day
- NEL (mouse [3]; [11]): 480 mg/kg/day
- NOAEL (mouse [3]; [11]): 930 mg/kg/day
- LEL (mouse [3]; systemic / pathology microscopic / liver / cytomegaly + systemic / pathology microscopic / liver / karyomegaly + systemic / pathology …): 930 mg/kg/day
- LEL (mouse [4]; [12]): 357 mg/kg/day
- LOAEL (mouse [4]; [12]): > 1430 mg/kg/day
- NEL (mouse [4]; [12]): < 357 mg/kg/day
- NOAEL (mouse [4]; [12]): ≥ 1430 mg/kg/day
- LEL (mouse [4]; [13]): 1430 mg/kg/day
- LOAEL (mouse [4]; [13]): > 1430 mg/kg/day
- NEL (mouse [4]; [13]): 715 mg/kg/day
- NOAEL (mouse [4]; [13]): ≥ 1430 mg/kg/day
- NEL (mouse [4]; group: reproductive, reproductive / offspring survival early / birth index / birth index): 715 mg/kg/day
- LEL (mouse [4]; [14]): 1430 mg/kg/day
- LOAEL (mouse [4]; [14]): > 1430 mg/kg/day
- NOAEL (mouse [4]; [14]): ≥ 1430 mg/kg/day
- LOAEL (mouse [5]; systemic / in life observation / body weight / body weight): 1000 mg/kg/day
- LEL (mouse [5]; [15]): 90 mg/kg/day
- NEL (mouse [5]; [15]): < 90 mg/kg/day
- NOAEL (mouse [5]; [15]): 450 mg/kg/day
- LOAEL (rat [6]; [16]): 30 mg/kg/day
- NOAEL (rat [6]; [16]): < 30 mg/kg/day
- LEL (rat [6]; [17]): 30 mg/kg/day
- NEL (rat [6]; [17]): < 30 mg/kg/day
- NEL (rat [7]; [18]): 310 mg/kg/day
- NOAEL (rat [7]; [18]): 310 mg/kg/day
- LEL (rat [7]; [19]): 625 mg/kg/day
- LOAEL (rat [7]; [19]): 625 mg/kg/day
- NOAEL (rat [8]; systemic / in life observation / body weight / body weight + systemic / in life observation / clinical signs / reduced body size + systemic…): 310 mg/kg/day
- LOAEL (rat [8]; systemic / in life observation / body weight / body weight + systemic / pathology microscopic / liver / cytomegaly + systemic / pathology …): 625 mg/kg/day
- LEL (rat [8]; [20]): 40 mg/kg/day
- NEL (rat [8]; [20]): < 40 mg/kg/day
